Measurements published in publication PMC10572602, “Molecular Mechanism of STIL Coiled-Coil Domain Oligomerization” (International Journal of Molecular Sciences, 2023).

Target: T1, STIL CCD peptide (Homo sapiens, UniProt Q15468, L736E)
T1 construct: STIL CCD718–749 WT; made in house; host or cells: chemical synthesis (Fmoc-SPPS on rink amide, C-terminal amide)
T1 sequence (Q15468 718-749 L736E): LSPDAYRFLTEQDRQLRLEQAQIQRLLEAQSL
Test: Fluorescence-based binding (micro-scale thermophoresis instrument), self-association
Conditions: 5 µM labeled + unlabelled same peptide 9 nM–300 µM; 25 mM Na2PO4 pH 6.8, 5% DMSO

Substance: L SPDAYRF LTEQDRQ LRLEQAQ IQRLLEA QSL-NH2 [STIL CCD718–749 L736E, STIL CCD peptide with destabilising L736E mutation; PDB 8oyk]
- binding or oligomerization (in words): no binding or oligomerization
